According to patent US9107919B2, “Pharmaceutical compositions comprising imidazoquinolin(amines) and derivatives thereof suitable for local administration” (priority 2009, dated 2015):

Experiments:
[1] = Toxicity of intravesical imiquimod in pigs (well-being, blood, bladder histology); assay type: in vivo, pig
Procedure: Animal procedures were performed according to the protocol approved by the Institutional Animal Care and Use Committee (IACUC, Radboud University Nijmegen Medicai Centre, The Netherlands) and in compliance with national and European regulations. Female pigs (Dutch Landrace) were used for this study. The urogenital tract of the pig closely resembles the human urogenital system, and the shape of the penis and the preputial diverticulum prevent transurethral catheterization of a male pig. The sows were housed in special swine stainless steel battery cages and fed with universal swine food. The pigs were divided into four groups of six animals. Experimental procedures were performed under general anesthesia. […]
Body temperature was measured rectally before and 1, 8 and 24 hours and one week after starting treatment. The well being of the animals was monitored by experienced staff by a selected protocollary list of possible signs and symptoms of toxicity before the experiment, just after the instillation and just before cystectomy.
24 hours after treatment three animals per group were sacrificed and cystectomised and 7 days after treatment the remaining animals underwent the same procedure. […] Material was embedded in paraffin, sectioned, and stained with H&E. The slides were evaluated for signs of inflammation and allergic reaction in submucosa and mucosa. […]

[2] = Solubility of imiquimod in glycerol or propylene glycol; assay type: physicochemical; conditions: for imiquimod concentration in solution: 120° C. 24 h, then water added
Procedure: Imiquimod was weighed (100 mg) and added of glycerol or propylene glycol to a volume of 10 ml. After shaking (at 120° C. for 24 hours) and cooling, 10 ml of water were added: the dispersions were filtered and the imiquimod amount in the liquid phases was determined. […] When propylene glycol was used the pH was 3.03 and the concentration of imiquimod in solution was 0.02%.

[3] = Imiquimod diffusion/release, Franz cell with cellulose acetate membrane; assay type: physicochemical; conditions: 0.1 M lactic acid solution, 37° C., first hour
Procedure: The imiquimod diffusion/release experiments have been performed with Franz cells with an effective diffusion area of 1.76 cm^2 and a receiving compartment volume of 14 ml: the donor compartment contained about 2 g of gel formulation, while the receiving one was filled with 0.1 M lactic acid solution (pH=3.5). Between the two compartments, a cellulose acetate membrane (MWCO=23000) was interposed. The experiments were carried out at 37° C. using a re-circulating bath and the fluid in the receptor chamber was stirred continuously at 300 rpm.
At prefixed time intervals, the receiving phase was completely withdrawn and substituted by fresh acid solution. The receiving solution was submitted to UV analysis for imiquimod.

[4] = Imiquimod solubility in glacial acetic acid and buffers (HPLC/UV); assay type: physicochemical
Procedure: The solubility was experimentally determined weighing 1200 mg of drug, adding 10 ml of glacial acetic acid and gently shaking the dispersion for 24 hours. This sample, after filtration (0.22 μm Millipore membrane filter) was analyzed by HPLC for the imiquimod content and its pH was measured.
Imiquimod (738 mg) was initially dissolved in glacial acetic acid (10 ml). A volume of this solution was appropriately diluted with phosphate buffer pH 7.0 (0.1 M), citrate buffer pH 6.0 (0.1 M) or acetate buffer pH 5.0 (0.1 M) to prepare systems containing 2.0% of drug. The samples, after filtration by 0.22 μm Millipore membrane filter, were spectrophotometrically and chromatographically analyzed for the imiquimod content. The pH was determined.

[5] = 27% glacial acetic acid/73% acetate buffer pH 5.0 (0.1 M), system with 2.0% drug
[6] = 27% glacial acetic acid/73% citrate buffer pH 6.0 (0.1 M), system with 2.0% drug
[7] = 27% glacial acetic acid/73% phosphate buffer pH 7.0 (0.1 M), system with 2.0% drug

Question: With `CC(C)Cn1cnc2c(N)nc3ccccc3c21` [imiquimod, 1-isobutyl-1H-imidazo[4,5-c]quinolin-4-amine] as the compound, how does the “tolerability of intravesical administration” value [1] read?
Answer: The value was “well tolerated, causes no bladder wall toxicity”.

Question: What about the pH ([2]; glycerol system) of the same compound?
Answer: The pH was 5.42.

Question: What about the “imiquimod concentration in solution” value ([2]; glycerol) of the same compound?
Answer: Its value is 0.02%.

Question: What about the pH ([2]; propylene glycol system) of the same compound?
Answer: Its pH is 3.03.

Question: And the “imiquimod concentration in solution” value ([2]; propylene glycol)?
Answer: Its value is 0.02%.

Question: What about the flux of imiquimod through the artificial barrier [3] of the same compound?
Answer: The flux of imiquimod through the artificial barrier was 1.95e-06 g·cm^−2·s^−1.

Question: What about the “solubility in pure acetic and lactic acid” value [4] of the same compound?
Answer: The value was greater than 7.5 % w/v.

Question: And the pH ([4]; 27% glacial acetic acid/73% acetate buffer pH 5.0)?
Answer: Its pH is 2.92.

Question: What about the “Imiquimod solubility, HPLC” value [4, 5] of the same compound?
Answer: The value was 1.89 % w/v.

Question: What about the “Imiquimod solubility, UV” value [4, 5] of the same compound?
Answer: Its value is 1.92 % w/v.

Question: What about the pH ([4]; 27% glacial acetic acid/73% citrate buffer pH 6.0) of the same compound?
Answer: The pH was 3.20.

Question: What about the “Imiquimod solubility, HPLC” value [4, 6] of the same compound?
Answer: The value was 0.86 % w/v.

Question: What about the “Imiquimod solubility, UV” value [4, 6] of the same compound?
Answer: The value was 0.72 % w/v.

Question: What about the pH ([4]; 27% glacial acetic acid/73% phosphate buffer pH 7.0) of the same compound?
Answer: Its pH is 2.92.

Question: And the “Imiquimod solubility, HPLC” value [4, 7]?
Answer: Its value is 1.69 % w/v.

Question: What about the “Imiquimod solubility, UV” value [4, 7] of the same compound?
Answer: The value was 1.55 % w/v.

Question: What about the “Imiquimod solubility, HPLC” value ([4]; 100% glacial acetic acid, 24 h shaking) of the same compound?
Answer: Its value is 7.50 % w/v.
